Key:
[1] = tested on: ALOMY; assay: Pre-emergence action against ALOMY, 1280 g/ha; format: in vivo, Alopecurus myosuroides; conditions: visual scoring after about 3 weeks vs untreated controls, 100% = plants have died, 0% = like control plants
In short: (§1)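 Soil-surface application after sowing, before emergence: WP or EC formulations in water with 0.5% additive, 600 litres per hectare, onto sandy loam pots. Damage rated visually in % relative to untreated plants after roughly 3 weeks in a greenhouse.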

[2] = tested on: VERPE; assay: Pre-emergence action against VERPE, 1280 g/ha; format: in vivo, Veronica persica; conditions: scored visually after about 3 weeks vs untreated controls (100% = plants have died); for pest or weed control at 1280 g/ha: Veronica persica, 504 h
In short: as §1

[3] = tested on: ECHGC; assay: Pre-emergence action at 320 g/ha against ECHGC; format: in vivo, Echinochloa crus-galli; conditions: visual scoring after about 3 weeks vs untreated controls
In short: (§2)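 Effect rated visually (% vs untreated control) about 3 weeks after pre-emergence spraying of WP/EC formulation onto soil; spray carried 0.5% additive at 600 l/ha water.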

[4] = tested on: LOLRI; assay: Pre-emergence action at 320 g/ha against LOLRI; format: in vivo, Lolium rigidum; conditions: visual scoring after about 3 weeks vs untreated controls; for pest or weed control at 320 g/ha: Lolium rigidum, 504 h
In short: as §2

[5] = tested on: MATIN; assay: Pre-emergence action at 320 g/ha against MATIN; format: in vivo, Tripleurospermum inodorum (Matricaria inodora); conditions: visual scoring after about 3 weeks vs untreated controls; for pest or weed control at 320 g/ha: Tripleurospermum inodorum, 504 h
In short: as §2

[6] = tested on: VIOTR; assay: Pre-emergence action at 320 g/ha against VIOTR; format: in vivo, Viola tricolor; conditions: dosage 320 g/ha; for pest or weed control at 320 g/ha: Viola tricolor, 504 h
In short: as §2

[7] = tested on: ECHCG; assay: Post-emergence action against ECHCG, 1.28 kg/ha; format: in vivo, Echinochloa crus-galli; conditions: dosage 1280 g/ha, visual rating about 3 weeks after treatment vs untreated controls; for pest or weed control at 1280 g/ha: Echinochloa crus-galli, 504 h
In short: (§3)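 Foliar application at the one-leaf stage: compound as WP or EC in water with 0.5% additive, sprayed at 600 L/ha. Plants are kept about 3 weeks in the greenhouse, then % herbicidal action is estimated visually (100% = death).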

[8] = tested on: LOLRI; assay: Post-emergence action against LOLRI, 1.28 kg/ha; format: in vivo, Lolium rigidum; conditions: dosage 1280 g/ha, visual rating about 3 weeks after treatment vs untreated controls
In short: as §3

[9] = tested on: ABUTH; assay: Post-emergence action against ABUTH, 1.28 kg/ha; format: in vivo, Abutilon theophrasti; conditions: dosage 1280 g/ha, visual rating about 3 weeks after treatment vs untreated controls (100% = plants died)
In short: as §3

[10] = tested on: MATIN; assay: Post-emergence action against MATIN, 1.28 kg/ha; format: in vivo, Tripleurospermum inodorum (Matricaria inodora); conditions: dosage 1280 g/ha, visual rating about 3 weeks after treatment vs untreated controls (100% = plants died)
In short: as §3

[11] = tested on: ALOMY; assay: Post-emergence action against ALOMY, 320 g/ha; format: in vivo, Alopecurus myosuroides; conditions: dosage 320 g/ha, visual rating about 3 weeks after treatment vs untreated controls (100% = plants died)
In short: (§4)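 Visual % activity vs untreated controls (0% = like control, 100% = plants dead), scored ~3 wk after treatment. Plants were grown in sandy loam in a greenhouse and sprayed on green parts at the one-leaf stage (2–3 wk post-sowing). Spray: WP or EC in water, 0.5% additive, 600 l/ha.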

[12] = tested on: SETVI; assay: Post-emergence action at 320 g/ha against SETVI; format: in vivo, Setaria viridis; conditions: visual rating about 3 weeks after treatment vs untreated controls
In short: as §4

[13] = tested on: PHBPU; assay: Post-emergence action at 320 g/ha against PHBPU; format: in vivo; conditions: visual rating about 3 weeks after treatment vs untreated controls
In short: as §4

[14] = tested on: VIOTR; assay: Post-emergence action at 320 g/ha against VIOTR; format: in vivo, Viola tricolor; conditions: visual rating about 3 weeks after treatment vs untreated controls; for pest or weed control at 320 g/ha: Viola tricolor, 504 h
In short: as §4

[15] = tested on: DIGSA; assay: Post-emergence action against DIGSA, 1.28 kg/ha; format: in vivo, Digitaria sanguinalis; conditions: dosage 1280 g/ha, visual rating about 3 weeks after treatment vs untreated controls
In short: as §3

[16] = tested on: ABUTH; assay: Post-emergence action at 320 g/ha against ABUTH; format: in vivo, Abutilon theophrasti; conditions: visual rating about 3 weeks after treatment vs untreated controls
Excerpt: Accordingly, the compounds of the invention have good herbicidal action against a broad spectrum of weed grasses and broad-leaved weeds and are therefore suitable for controlling unwanted vegetation by the post-emergence method. • b) Seeds of monocotyledonous and dicotyledonous weeds and crop plants are placed in sandy loam in plastic or organic planting pots, covered with soil and cultivated in a greenhouse under controlled growth conditions. 2 to 3 weeks after sowing, the test plants are treated at the one-leaf stage. The compounds of the invention, formulated in the form of wettable powders (WP) or as emulsion concentrates (EC), are then sprayed onto the green parts of the plants as aqueous suspension or emulsion with addition of 0.5% additive at a water application rate of 600 l/ha (converted). After the test plants have been kept in the greenhouse under optimum growth conditions for about 3 weeks, the activity of the preparations is rated visually in comparison to untreated controls. For example, 100% activity=the plants have died, 0% activity=like control plants. Tables 39 to 49 below show the effects of selected compounds of the general formula (I) according to Tables 1 and 2 on various harmful plants and at an application rate corresponding to 320 g/ha, which were obtained by the experimental procedure mentioned above.

| Compound | Pre-emergence action against ALOMY [1] [%] | Pre-emergence action against VERPE [2] [%] | Pre-emergence action against ECHGC in % [3] [%] | Pre-emergence action against LOLRI in % [4] [%] | Pre-emergence action against MATIN in % [5] [%] | Pre-emergence action against VIOTR in % [6] [%] | Post-emergence action against ECHCG [7] [%] | Post-emergence action against LOLRI [8] [%] | Post-emergence action against ABUTH [9] [%] | Post-emergence action against MATIN [10] [%] | Post-emergence action against ALOMY [11] [%] | Post-emergence action against SETVI in % [12] [%] | Post-emergence action against PHBPU in % [13] [%] | Post-emergence action against VIOTR in % [14] [%] | Post-emergence action against DIGSA [15] [%] | Post-emergence action against ABUTH in % [16] [%] | further results |
| --- | --- | --- | --- | --- | --- | --- | --- | --- | --- | --- | --- | --- | --- | --- | --- | --- | --- |
| CN(C)S(=O)(=O)NC(=O)COc1nn(-c2ccccc2F)c(-c2ccc(F)nc2)c1Br [Example X-005] | 100 | 100 | 90 | 100 | 100 | 100 | 100 | 100 | 90 | 100 | 90 | 90 | 80 | 80 | – | – | – |
| COC(=O)[C@@H](C)Oc1nn(-c2ccccc2F)c(-c2cncnc2)c1Br [VI-011, Methyl (2R)-2-{[4-bromo-1-(2-fluorophenyl)-5-(pyrimidin-5-yl)-1H-pyrazol-3-yl]oxy}propanoate] | 90 | – | 80 | – | – | – | – | 100 | – | – | 90 | 90 | – | – | 100 | 90 | pest or weed control at 1280 g/ha [2]: 100%; pest or weed control at 320 g/ha [4]: 100%; pest or weed control at 320 g/ha [5]: 90%; pest or weed control at 320 g/ha [6]: 100%; pest or weed control at 1280 g/ha [7]: 100%; pest or weed control at 320 g/ha [14]: 90% |
| COC(=O)C(C)Oc1nn(-c2ccccc2)c(-c2ccc(F)nc2)c1Br (stereo not shown) [VII-026] | 100 | 100 | – | 80 | 90 | 100 | 90 | – | 90 | 90 | 100 | 90 | – | 90 | 100 | 80 | – |
| CCC(Oc1nn(-c2ccccc2F)c(-c2ccc(F)nc2)c1Br)C(=O)OC (stereo not shown) [VII-029] | 90 | 100 | – | 90 | 90 | 100 | 100 | 100 | – | – | 100 | – | – | 100 | 100 | 80 | – |
| CCOC(=O)COc1nn(-c2ccccc2F)c(-c2ccc(F)nc2)c1I [VII-036] | 100 | 100 | 90 | – | 90 | 100 | 90 | 100 | 90 | 100 | 90 | 90 | 80 | 80 | 100 | – | – |
| O=C(O)COc1nn(-c2ccccc2F)c(-c2ccc(F)nc2)c1I [VII-037] | 100 | 100 | 80 | 100 | 80 | 100 | 90 | 90 | 90 | 90 | 100 | 80 | 80 | 80 | 90 | – | – |
| O=C(COc1nn(-c2ccccc2F)c(-c2ccc(F)nc2)c1Br)OCC1OCCO1 [VII-103] | 100 | 100 | 80 | 100 | 90 | 100 | 100 | 100 | – | 90 | 100 | 80 | 80 | – | 100 | – | – |
| COC(=O)[C@@H](C)Oc1nn(-c2cc(F)ccc2F)c(-c2cncc(F)c2)c1C#N [VII-147] | 100 | 100 | 100 | 100 | 90 | 100 | 100 | 100 | 90 | 100 | 90 | 80 | 90 | – | 100 | – | – |
| CCOC(=O)COc1nn(-c2ccccc2F)c(-c2ccnc(F)c2)c1Br [VIII-003, Ethyl {[4-bromo-1-(2-fluorophenyl)-5-(2-fluoropyridin-4-yl)-1H-pyrazol-3-yl]oxy}acetate] | – | – | 90 | – | – | – | – | 100 | 90 | – | 90 | – | 80 | – | – | – | pest or weed control at 1280 g/ha [2]: 90%; pest or weed control at 320 g/ha [4]: 90%; pest or weed control at 320 g/ha [5]: 90%; pest or weed control at 320 g/ha [6]: 100%; pest or weed control at 1280 g/ha [7]: 100%; pest or weed control at 320 g/ha [14]: 80% |
| O=C(O)COc1nn(-c2ccccc2F)c(-c2ccnc(F)c2)c1Br [VIII-004] | – | 90 | 90 | 90 | 90 | 90 | 90 | 100 | – | 90 | 90 | 80 | 90 | 90 | – | – | – |

— patent US12180187B2, “1-phenyl-5-azinylpyrazolyl-3-oxyalkyl acids and their use for controlling unwanted plant growth” (BAYER AKTIENGESELLSCHAFT, priority 2019, dated 2024)
